# Source: US8802597B2, “Herbicidal pyrimidines” (E I du Pont de Nemours and Company, priority 2003, dated 2014)
# Like-named read-outs stand apart in the source and are kept apart here.
# Legend:
# Type in all cases: in vivo
# [1] = tested on: duck salad (Heteranthera limosa); assay: Test B flooded paddy test; conditions: Heteranthera limosa, Flood, 1000 g ai/ha; scale 0 to 100; read-out: Plant response rating, Ducksalad
# Outline: (§1)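 Plants were grown to the 2-leaf stage before treatment, then kept in a greenhouse for 13 to 15 days. Injury was rated visually against untreated controls on a 0 to 100 scale, where 0 is no effect and 100 is complete control.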
# [2] = tested on: barnyardgrass (Echinochloa crus-galli); assay: Test B flooded paddy test; conditions: Echinochloa crus-galli, Flood, 1000 g ai/ha; scale 0 (no effect) to 100 (complete control); read-out: Plant response rating, Barnyardgrass
# Outline: as §1
# [3] = tested on: rice (Oryza sativa); assay: Test B flooded paddy test; conditions: Oryza sativa, Flood, 1000 g ai/ha; scale 0 to 100; read-out: Plant response rating, Rice
# Outline: as §1
# [4] = tested on: umbrella sedge (Cyperus difformis); assay: Test B flooded paddy test; conditions: Cyperus difformis, Flood, 1000 g ai/ha; scale 0 to 100; read-out: Plant response rating, Sedge, Umbrella
# Outline: as §1
# [5] = tested on: Surinam grass (Brachiaria decumbens); assay: Test B pre/postemergence; conditions: Urochloa decumbens; for pest or weed control at 125 g/ha: 125 g ai/ha; for pest or weed control at 500 g/ha: 500 g ai/ha
# Outline: (§2)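 Plants treated pre- or postemergence were compared visually with controls after 13 to 15 days. Ratings ran from 0, no effect, to 100, complete control.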
# [6] = tested on: cocklebur (Xanthium strumarium); assay: Test B pre/postemergence; conditions: Xanthium strumarium; for pest or weed control at 125 g/ha: 125 g ai/ha; for pest or weed control at 500 g/ha: 500 g ai/ha
# Outline: as §2
# [7] = tested on: pigweed (Amaranthus retroflexus); assay: Test B pre/postemergence; conditions: Amaranthus retroflexus; for pest or weed control at 125 g/ha: 125 g ai/ha; for pest or weed control at 500 g/ha: 500 g ai/ha
# Outline: as §2
# [8] = tested on: corn (Zea mays); assay: Test B pre/postemergence; conditions: Zea mays
# Outline: as §2
# [9] = tested on: wheat (Triticum aestivum); assay: Test B pre/postemergence; conditions: Triticum aestivum; for plant injury at 125 g/ha: 125 g ai/ha; for plant injury at 500 g/ha: 500 g ai/ha
# Outline: as §2
# [10] = tested on: morningglory (Ipomoea coccinea); assay: Test B pre/postemergence; conditions: Ipomoea; for pest or weed control at 125 g/ha: 125 g ai/ha; for pest or weed control at 500 g/ha: 500 g ai/ha
# Outline: as §2
# [11] = tested on: velvetleaf (Abutilon theophrasti); assay: Test B pre/postemergence; conditions: Abutilon theophrasti; for pest or weed control at 125 g/ha: 125 g ai/ha; for pest or weed control at 500 g/ha: 500 g ai/ha
# Outline: as §2
# [12] = tested on: barnyardgrass (Echinochloa crus-galli); assay: Test B pre/postemergence; conditions: Echinochloa crus-galli; for pest or weed control at 125 g/ha: 125 g ai/ha; for pest or weed control at 500 g/ha: 500 g ai/ha
# Outline: as §2
# [13] = tested on: giant foxtail (Setaria faberii); assay: Test B pre/postemergence; conditions: Setaria faberi; for pest or weed control at 125 g/ha: 125 g ai/ha; for pest or weed control at 500 g/ha: 500 g ai/ha
# Outline: as §2
# [14] = tested on: crabgrass (Digitaria sanguinalis); assay: Test B pre/postemergence; conditions: Digitaria sanguinalis; for pest or weed control at 125 g/ha: 125 g ai/ha; for pest or weed control at 500 g/ha: 500 g ai/ha
# Outline: as §2
# [15] = tested on: lambsquarters (Chenopodium album); assay: Test B pre/postemergence; conditions: Chenopodium album; for pest or weed control at 125 g/ha: 125 g ai/ha; for pest or weed control at 500 g/ha: 500 g ai/ha
# Outline: as §2
# [16] = tested on: wild oat (Avena fatua); assay: Test B postemergence; conditions: Avena fatua, post-emergence
# Outline: as §2
# [17] = tested on: blackgrass (Alopecurus myosuroides); assay: Test B postemergence; conditions: Alopecurus myosuroides, post-emergence
# Outline: as §2
structure (smiles),measurement,setting,value
"COC(=O)c1nc(C2CC2)nc(N)c1Br [Compound 2, methyl 6-amino-5-bromo-2-cyclopropyl-4-pyrimidinecarboxylate]",pest or weed control at 1000 g/ha,[1],90%
same,pest or weed control at 1000 g/ha,[2],90%
same,plant injury at 1000 g/ha,[3],60%
same,pest or weed control at 1000 g/ha,[4],90%
same,pest or weed control at 125 g/ha,"[5]; post-emergence, Postemergence, scale 0 to 100 (0 no effect, 100 complete control), read-out: Surinam Grass plant response rating",90%
same,pest or weed control at 500 g/ha,"[5]; post-emergence, Postemergence, scale 0 to 100, read-out: Plant response rating, Surinam Grass",90%
same,pest or weed control at 125 g/ha,"[5]; pre-emergence, Preemergence, scale 0 to 100 (0 no effect, 100 complete control), read-out: Plant response rating, Surinam Grass",40%
same,pest or weed control at 500 g/ha,"[5]; pre-emergence, Preemergence, scale 0 to 100 (0 no effect, 100 complete control), read-out: Surinam Grass plant response rating",90%
same,pest or weed control at 125 g/ha,"[6]; post-emergence, Postemergence, scale 0 to 100 (0 no effect, 100 complete control), read-out: Cocklebur plant response rating",100%
same,pest or weed control at 500 g/ha,"[6]; post-emergence, Postemergence, scale 0 to 100, read-out: Plant response rating, Cocklebur",100%
same,pest or weed control at 125 g/ha,"[6]; pre-emergence, Preemergence, scale 0 to 100 (0 no effect, 100 complete control), read-out: Plant response rating, Cocklebur",90%
same,pest or weed control at 500 g/ha,"[6]; pre-emergence, Preemergence, scale 0 to 100 (0 no effect, 100 complete control), read-out: Cocklebur plant response rating",100%
same,pest or weed control at 125 g/ha,"[7]; post-emergence, Postemergence, scale 0 to 100 (0 no effect, 100 complete control), read-out: Pigweed plant response rating",100%
same,pest or weed control at 500 g/ha,"[7]; post-emergence, Postemergence, scale 0 to 100, read-out: Plant response rating, Pigweed",100%
same,pest or weed control at 125 g/ha,"[7]; pre-emergence, Preemergence, scale 0 to 100 (0 no effect, 100 complete control), read-out: Plant response rating, Pigweed",90%
same,pest or weed control at 500 g/ha,"[7]; pre-emergence, Preemergence, scale 0 to 100 (0 no effect, 100 complete control), read-out: Pigweed plant response rating",100%
same,plant injury at 125 g/ha,"[8]; post-emergence, Postemergence, 125 g ai/ha, scale 0 to 100 (0 no effect, 100 complete control), read-out: Corn plant response rating",20%
same,"Corn plant response rating (crop injury, 0 = no effect, 100 = complete kill) at 500 g/ha","[8]; post-emergence, Postemergence, 500 g ai/ha, scale 0 to 100",80%
same,"Corn plant response rating (crop injury, 0 = no effect, 100 = complete kill) at 125 g/ha","[8]; pre-emergence, Preemergence, 125 g ai/ha, scale 0 to 100 (0 no effect, 100 complete control)",0%
same,plant injury at 500 g/ha,"[8]; pre-emergence, Preemergence, 500 g ai/ha, scale 0 to 100 (0 no effect, 100 complete control), read-out: Corn plant response rating",80%
same,plant injury at 125 g/ha,"[9]; post-emergence, Postemergence, scale 0 to 100 (0 no effect, 100 complete control), read-out: Wheat plant response rating",40%
same,plant injury at 500 g/ha,"[9]; post-emergence, Postemergence, scale 0 to 100, read-out: Plant response rating, Wheat",70%
same,plant injury at 125 g/ha,"[9]; pre-emergence, Preemergence, scale 0 to 100 (0 no effect, 100 complete control), read-out: Plant response rating, Wheat",60%
same,plant injury at 500 g/ha,"[9]; pre-emergence, Preemergence, scale 0 to 100 (0 no effect, 100 complete control), read-out: Wheat plant response rating",70%
same,pest or weed control at 125 g/ha,"[10]; post-emergence, Postemergence, scale 0 to 100 (0 no effect, 100 complete control), read-out: Morningglory plant response rating",100%
same,pest or weed control at 500 g/ha,"[10]; post-emergence, Postemergence, scale 0 to 100, read-out: Plant response rating, Morningglory",100%
same,pest or weed control at 125 g/ha,"[10]; pre-emergence, Preemergence, scale 0 to 100 (0 no effect, 100 complete control), read-out: Plant response rating, Morningglory",100%
same,pest or weed control at 500 g/ha,"[10]; pre-emergence, Preemergence, scale 0 to 100 (0 no effect, 100 complete control), read-out: Morningglory plant response rating",100%
same,pest or weed control at 125 g/ha,"[11]; post-emergence, Postemergence, scale 0 to 100 (0 no effect, 100 complete control), read-out: Velvetleaf plant response rating",60%
same,pest or weed control at 500 g/ha,"[11]; post-emergence, Postemergence, scale 0 to 100, read-out: Plant response rating, Velvetleaf",100%
same,pest or weed control at 125 g/ha,"[11]; pre-emergence, Preemergence, scale 0 to 100 (0 no effect, 100 complete control), read-out: Plant response rating, Velvetleaf",90%
same,pest or weed control at 500 g/ha,"[11]; pre-emergence, Preemergence, scale 0 to 100 (0 no effect, 100 complete control), read-out: Velvetleaf plant response rating",100%
same,pest or weed control at 125 g/ha,"[12]; post-emergence, Postemergence, scale 0 to 100 (0 no effect, 100 complete control), read-out: Barnyardgrass plant response rating",90%
same,pest or weed control at 500 g/ha,"[12]; post-emergence, Postemergence, scale 0 to 100, read-out: Plant response rating, Barnyardgrass",90%
same,pest or weed control at 125 g/ha,"[12]; pre-emergence, Preemergence, scale 0 to 100 (0 no effect, 100 complete control), read-out: Plant response rating, Barnyardgrass",70%
same,pest or weed control at 500 g/ha,"[12]; pre-emergence, Preemergence, scale 0 to 100 (0 no effect, 100 complete control), read-out: Barnyardgrass plant response rating",90%
same,pest or weed control at 125 g/ha,"[13]; post-emergence, Postemergence, scale 0 to 100 (0 no effect, 100 complete control), read-out: Foxtail, Giant plant response rating",70%
same,pest or weed control at 500 g/ha,"[13]; post-emergence, Postemergence, scale 0 to 100, read-out: Plant response rating, Foxtail, Giant",80%
same,pest or weed control at 125 g/ha,"[13]; pre-emergence, Preemergence, scale 0 to 100 (0 no effect, 100 complete control), read-out: Plant response rating, Foxtail, Giant",30%
same,pest or weed control at 500 g/ha,"[13]; pre-emergence, Preemergence, scale 0 to 100 (0 no effect, 100 complete control), read-out: Foxtail, Giant plant response rating",90%
same,pest or weed control at 125 g/ha,"[14]; post-emergence, Postemergence, scale 0 to 100 (0 no effect, 100 complete control), read-out: Crabgrass plant response rating",90%
same,pest or weed control at 500 g/ha,"[14]; post-emergence, Postemergence, scale 0 to 100, read-out: Plant response rating, Crabgrass",90%
same,pest or weed control at 125 g/ha,"[14]; pre-emergence, Preemergence, scale 0 to 100 (0 no effect, 100 complete control), read-out: Plant response rating, Crabgrass",90%
same,pest or weed control at 500 g/ha,"[14]; pre-emergence, Preemergence, scale 0 to 100 (0 no effect, 100 complete control), read-out: Crabgrass plant response rating",90%
same,pest or weed control at 125 g/ha,"[15]; post-emergence, Postemergence, scale 0 to 100 (0 no effect, 100 complete control), read-out: Lambsquarters plant response rating",100%
same,pest or weed control at 500 g/ha,"[15]; post-emergence, Postemergence, scale 0 to 100, read-out: Plant response rating, Lambsquarters",100%
same,pest or weed control at 125 g/ha,"[15]; pre-emergence, Preemergence, scale 0 to 100 (0 no effect, 100 complete control), read-out: Plant response rating, Lambsquarters",100%
same,pest or weed control at 500 g/ha,"[15]; pre-emergence, Preemergence, scale 0 to 100 (0 no effect, 100 complete control), read-out: Lambsquarters plant response rating",100%
same,pest or weed control at 125 g/ha,"[16]; 125 g ai/ha, scale 0 to 100 (0 no effect, 100 complete control), read-out: Oat, Wild plant response rating",40%
same,pest or weed control at 500 g/ha,"[16]; 500 g ai/ha, scale 0 to 100, read-out: Plant response rating, Oat, Wild",70%
same,pest or weed control at 125 g/ha,"[17]; 125 g ai/ha, scale 0 to 100 (0 no effect, 100 complete control), read-out: Blackgrass plant response rating",50%
same,pest or weed control at 500 g/ha,"[17]; 500 g ai/ha, scale 0 to 100, read-out: Plant response rating, Blackgrass",80%
